Values of other authors, collected in patent publication US8877445B2, “Methods for identification of tumor phenotype and treatment” (Intelligent Oncotherapeutics, Inc., priority 2008, dated 2014).
Where no end group is shown, it is not given here. [ ]: non-standard residue; d: D form.

Columns and labels:
patients [1] = conditions: clinical phase I trial
aurora B = aurora B (Homo sapiens, UniProt Q96GD4); conditions: at efficacious concentrations
[2] = test system: subcutaneous human tumor xenografts; conditions: for mitotic accumulation and apoptosis in xenografts / tolerability of efficacious doses: mouse, in vivo; for tolerability of efficacious doses: po; for tumor growth: oral administration (MLN8237: repeated) at well tolerated doses
[3] = in vivo
[4] = test system: cultured human tumor cells
human tumor types = conditions: in vivo, wide range of human tumor types (Pan et al. 2008)
cells = conditions: reviewed in Agnese et al. 2007
[5] = test system: leukemia, colon and pancreatic tumors
patients [6] = conditions: phase I; dose levels well below those which cause dose-limiting toxicity (ASCO 2008 abstract #3009)
Aurora A [7] = molecular target: T1, Aurora A (Homo sapiens, UniProt O14965); conditions: cultured cells
Aurora A [8] = molecular target: T1, Aurora A; conditions: in vitro
FOXM1 = molecular target: T2, FOXM1 (Homo sapiens, UniProt Q08050)
T2 sequence (Q08050 1-763): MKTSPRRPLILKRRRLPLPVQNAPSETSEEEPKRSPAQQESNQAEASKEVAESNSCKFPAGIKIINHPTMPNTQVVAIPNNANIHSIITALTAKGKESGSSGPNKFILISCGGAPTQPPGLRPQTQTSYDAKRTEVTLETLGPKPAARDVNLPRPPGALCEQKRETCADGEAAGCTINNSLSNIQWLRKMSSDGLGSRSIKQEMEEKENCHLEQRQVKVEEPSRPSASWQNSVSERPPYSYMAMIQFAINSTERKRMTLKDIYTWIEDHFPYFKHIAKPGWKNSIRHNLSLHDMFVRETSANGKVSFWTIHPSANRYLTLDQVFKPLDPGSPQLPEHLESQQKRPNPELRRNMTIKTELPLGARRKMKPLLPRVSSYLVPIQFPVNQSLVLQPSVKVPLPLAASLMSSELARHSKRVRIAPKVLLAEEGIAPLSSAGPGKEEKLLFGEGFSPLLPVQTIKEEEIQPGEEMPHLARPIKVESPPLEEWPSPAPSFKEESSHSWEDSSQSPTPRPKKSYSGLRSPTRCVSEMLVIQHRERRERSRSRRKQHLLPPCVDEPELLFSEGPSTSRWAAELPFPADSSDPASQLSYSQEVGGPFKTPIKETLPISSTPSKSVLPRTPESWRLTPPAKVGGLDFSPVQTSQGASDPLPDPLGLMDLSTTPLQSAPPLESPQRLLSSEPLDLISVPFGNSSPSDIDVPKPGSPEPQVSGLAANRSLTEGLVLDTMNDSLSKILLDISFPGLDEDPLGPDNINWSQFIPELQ

patients [9] = test system: patients
melanoma cells = conditions: in vitro (Ghosh et al. 2005)

T1 sequence (O14965 whole entry): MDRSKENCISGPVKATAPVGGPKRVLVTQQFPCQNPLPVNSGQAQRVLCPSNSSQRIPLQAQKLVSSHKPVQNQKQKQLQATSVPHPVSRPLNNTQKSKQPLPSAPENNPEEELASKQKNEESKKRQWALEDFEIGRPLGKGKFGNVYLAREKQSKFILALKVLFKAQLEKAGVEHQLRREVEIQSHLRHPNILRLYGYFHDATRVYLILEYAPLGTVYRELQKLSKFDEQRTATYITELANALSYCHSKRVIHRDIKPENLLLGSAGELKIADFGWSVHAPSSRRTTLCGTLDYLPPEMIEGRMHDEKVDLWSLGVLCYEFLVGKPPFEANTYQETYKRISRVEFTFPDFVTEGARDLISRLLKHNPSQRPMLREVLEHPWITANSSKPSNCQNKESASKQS
Sequence of aurora B (Q96GD4 whole entry): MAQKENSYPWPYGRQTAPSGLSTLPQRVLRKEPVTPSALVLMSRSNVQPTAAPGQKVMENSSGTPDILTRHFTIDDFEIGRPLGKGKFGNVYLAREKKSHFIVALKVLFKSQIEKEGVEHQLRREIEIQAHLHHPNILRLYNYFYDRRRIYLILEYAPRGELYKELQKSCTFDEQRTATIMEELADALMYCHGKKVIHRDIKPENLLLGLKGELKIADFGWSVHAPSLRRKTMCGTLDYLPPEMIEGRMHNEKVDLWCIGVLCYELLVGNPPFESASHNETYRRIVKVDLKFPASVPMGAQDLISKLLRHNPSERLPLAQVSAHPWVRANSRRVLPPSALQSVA

Compound: COc1cc2c(Nc3ccc(NC(=O)c4ccccc4)cc3)ncnc2cc1OCCCN1CCOCC1 [ZM 447439]
- toxicities (patients [1]): tolerable toxicities

Compound: Cc1cc(Nc2ncc(F)c(NC3C4C=CC(C4)C3C(N)=O)n2)ccc1N1CCN(C)CC1 (stereo not shown) [AS703569]
- toxicities (patients [1]): tolerable toxicities

Compound: O=C(Nc1cccc(Cl)c1)Nc1ncc(CCNc2ncnc3ccsc23)s1 [SNS-314]
- toxicities (patients [1]): tolerable toxicities

Compound: COc1cc(Nc2ncc3c(n2)-c2ccc(Cl)cc2C(c2c(F)cccc2OC)=NC3)ccc1C(=O)O [MLN8237]
- aurora B inhibition (aurora B): did not appreciably inhibit aurora B
- mitotic accumulation and apoptosis in xenografts [2]: induced mitotic accumulation and apoptosis
- tolerability of efficacious doses [2]: well tolerated doses
- tumor growth [2]: dramatic tumor growth inhibition in all tumor models evaluated
- accumulation of mitotic cells ([2]; single oral administration): time dependent accumulation of mitotic cells
- pharmacokinetic profile [3]: favorable pharmacokinetic profile
- oral bioavailability ([3]; po): orally bioavailable
- effects on cultured human tumor cells [4]: mitotic spindle abnormalities, mitotic accumulation, inhibition of cell proliferation and apoptosis

Compound: Cc1cc(Nc2cc(N3CCN(C)CC3)nc(Sc3ccc(NC(=O)C4CC4)cc3)n2)[nH]n1 [VX-680]
- cell-cycle progression and apoptosis (human tumor types): blocks cell-cycle progression and induces apoptosis
- effect on cell proliferation, spindle formation, DNA copies, cell death (cells): block cell proliferation, disrupt bipolar spindle formation, and lead to accumulation of cells with 4N or greater numbers of chromosomal DNA copies and eventual cell death
- tolerability of efficacious doses ([5]; xenograft models): well-tolerated doses
- tumor regression ([5]; xenograft models): regression of leukemia, colon and pancreatic tumors
- tumor growth ([5]; xenograft models (Harrington et al. 2004)): substantial inhibition of tumor growth
- patients who achieved stable disease (patients [6]): three of 16

Compound: O=C(O)c1ccc(Nc2ncc3c(n2)-c2ccc(Cl)cc2C(c2c(F)cccc2F)=NC3)cc1 [MLN8054]
- duration of tumor growth inhibition ([2]; after end of treatment): sustained after discontinuing MLN8054 treatment
- mitotic accumulation and apoptosis in xenografts [2]: induced mitotic accumulation and apoptosis
- tolerability of efficacious doses [2]: well tolerated doses
- tumor growth [2]: dramatically inhibited
- toxicities (patients [1]): tolerable toxicities
- selectivity Aurora A over Aurora B (Aurora A [7]): selective for Aurora A over the family member Aurora B
- effects on cultured human tumor cells [4]: G2/M accumulation and spindle defects and inhibits proliferation
- Aurora A kinase activity (Aurora A [8]): inhibits recombinant Aurora A kinase activity

Compound: (D-Arg)9-p19ARF 26-44: small peptide that blocks FOXM1; rrrrrrrrrrKFVRSRRPRTAS-CALAFVN containing nine D-Arg residues at the amino terminus ([dR][dR][dR][dR][dR][dR][dR][dR][dR]KFVRSRRPRTASCALAFVN; not fully specified; printed as rrrrrrrrrrKFVRSRRPRTAS-CALAFVN; UniProt Q64364 26-44, looked up, fragment)
- action on FOXM1 (FOXM1; Gusarova et al. 2007): blocks FOXM1
- effects in vitro and in vivo (FOXM1; both in vitro and in vivo): growth inhibition, reduction in levels of survivin, aurora B kinase, and PLK1 as well as inducing apoptosis

Compound: CCN(CCCOc1ccc2c(Nc3cc(CC(=O)Nc4cccc(F)c4)n[nH]3)ncnc2c1)CCOP(=O)(O)O [AD1152]
- toxicity (patients [9]; phase I): neutropenia as the only significant toxicity
- patients with significant disease stabilization (patients [9]; phase I (ASCO 2008 abstract #3008)): 5 of 12

Compound: CO[C@@H](C(=O)N1Cc2n[nH]c(NC(=O)c3ccc(N4CCN(C)CC4)cc3)c2C1)c1ccccc1 [PHA-739358]
- toxicities (patients [1]): tolerable toxicities

Compound: C=CCc1ccc(O)c(OC)c1 [Eugenol]
- E2F1 targeting and killing of melanoma cells (melanoma cells): target E2F1 and kill melanoma cells

Compound: CC(=O)NCC(=O)N1[C@@H]2CC[C@H]1c1ccc(Nc3ncc(C(F)(F)F)c(NC4CCC4)n3)cc12 [PF-03814735]
- toxicities (patients [1]): tolerable toxicities

Compound: COCC[n+]1c2c(n(Cc3cnccn3)c1C)C(=O)c1ccccc1C2=O.[Br-] [YM155]
- toxicity (solid tumors; phase I): tolerable toxicity
- clinical activity (solid tumors; phase I (2008 abstracts #3536, 5135, 8538)): clinical activity in solid tumors
